Assay results published in patent publication US7728003B2, “5-oxo-5,8-dihydro-pyrido-pyrimidines as inhibitors of c-fms kinase” (Janssen Pharmaceutica N.V., priority 2005, dated 2010).

Molecular target: c-fms (Homo sapiens, UniProt P07333)
Assay: c-fms autophosphorylation, fluorescence polarization competition immunoassay
Assay type: biochemical
Conditions: 10 nM c-fms, 1 mM ATP; for inhibition at 0.1 µM: test concentration 0.1 μM, read-out: c-fms Autophosphorylation Percent Inhibition, % @ 0.1 μM; for inhibition at 1 µM: test concentration 1 μM, read-out: c-fms Autophosphorylation Percent Inhibition, % @ 1 μM
Protocol: The assay buffer used was 100 mM 4-(2-hydroxyethyl)piperazine 1-ethanesulfonic acid (HEPES), pH 7.5, 1 mM 1,4-dithio-DL-threitol (DTT), 0.01% (v/v) Tween-20. Compounds were diluted in assay buffer containing 4% dimethylsulfoxide (DMSO) just prior to the assay. To each well, 5 μL of compound were added followed by the addition of 3 μL of a mix containing 33 nM c-fms and 16.7 mM MgCl2 (Sigma) in assay buffer. The kinase reaction was initiated by adding 2 μL of 5 mM ATP (Sigma) in assay buffer. The final concentrations in the assay were 10 nM c-fms, 1 mM ATP, 5 mM MgCl2, 2% DMSO. Control reactions were ran in each plate: in positive and negative control wells, assay buffer (made 4% in DMSO) was substituted for the compound; in addition, positive control wells received 1.2 μL of 50 mM ethylenediaminetetraaceticacid (EDTA).
The plates were incubated at room temperature for 45 min. At the end of the incubation, the reaction was quenched with 1.2 μL of 50 mM EDTA (EDTA was not added to the positive control wells at this point; see above). Following a 5-min incubation, each well received 10 μL of a 1:1:3 mixture of anti-phosphotyrosine antibody, 10X, PTK green tracer, 10X (vortexed), FP dilution buffer, respectively (all from PanVera, cat. # P2837). The plate was covered, incubated for 30 min at room temperature and the fluorescence polarization was read on the Analyst. The instrument settings were: 485 nm excitation filter; 530 nm emission filter; Z height: middle of well; G factor: 0.93.
The percent inhibition is shown in Table 1 at the indicated test concentration. The IC50 shown in Table 2 are averages of three independent measurements.

Sequence of c-fms (P07333 20-972): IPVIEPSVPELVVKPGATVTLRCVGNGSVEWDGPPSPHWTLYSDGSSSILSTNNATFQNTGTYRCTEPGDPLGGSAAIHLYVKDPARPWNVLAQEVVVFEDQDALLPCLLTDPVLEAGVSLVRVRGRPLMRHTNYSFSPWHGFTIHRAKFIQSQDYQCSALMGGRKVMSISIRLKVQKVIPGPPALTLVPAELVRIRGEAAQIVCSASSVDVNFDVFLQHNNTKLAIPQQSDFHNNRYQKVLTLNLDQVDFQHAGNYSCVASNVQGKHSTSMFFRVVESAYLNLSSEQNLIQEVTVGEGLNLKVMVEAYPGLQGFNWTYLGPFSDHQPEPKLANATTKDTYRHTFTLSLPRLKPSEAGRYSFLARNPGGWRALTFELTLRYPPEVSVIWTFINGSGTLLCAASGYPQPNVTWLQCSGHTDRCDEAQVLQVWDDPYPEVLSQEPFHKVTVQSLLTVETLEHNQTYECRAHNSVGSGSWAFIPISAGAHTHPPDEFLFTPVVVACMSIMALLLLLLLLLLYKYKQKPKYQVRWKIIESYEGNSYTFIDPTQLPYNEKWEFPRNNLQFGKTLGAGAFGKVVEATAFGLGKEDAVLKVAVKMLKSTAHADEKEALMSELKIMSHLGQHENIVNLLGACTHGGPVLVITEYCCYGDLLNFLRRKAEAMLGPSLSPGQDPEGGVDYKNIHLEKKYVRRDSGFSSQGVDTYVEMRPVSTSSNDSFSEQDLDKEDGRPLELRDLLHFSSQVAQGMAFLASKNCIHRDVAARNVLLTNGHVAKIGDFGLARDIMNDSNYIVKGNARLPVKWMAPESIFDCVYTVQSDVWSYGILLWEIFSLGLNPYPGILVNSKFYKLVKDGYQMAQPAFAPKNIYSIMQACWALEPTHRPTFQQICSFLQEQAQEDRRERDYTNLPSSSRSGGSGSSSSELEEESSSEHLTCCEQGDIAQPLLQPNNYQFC

Row | Structure (SMILES) | inhibition at 0.1 µM [%] | inhibition at 1 µM [%]
1 | CNC(=O)c1cn(C2CCCCC2)c2nc(NCCCN3CCOCC3)ncc2c1=O [Cpd 55, 8-Cyclohexyl-2-(3-morpholin-4-yl-propylamino)-5-oxo-5,8-dihydro-pyrido[2,3-d]pyrimidine-6-carboxylic acid methylamide] | 13 | 23
2 | CNC(=O)c1cn(C2CCCCC2)c2nc(NCCCOC)ncc2c1=O [Cpd 56, 8-Cyclohexyl-2-(3-methoxy-propylamino)-5-oxo-5,8-dihydro-pyrido[2,3-d]pyrimidine-6-carboxylic acid methylamide] | 6 | 23
3 | CNC(=O)c1cn(C2CCCCC2)c2nc(NCCOC)ncc2c1=O [Cpd 57, 8-Cyclohexyl-2-(2-methoxy-ethylamino)-5-oxo-5,8-dihydro-pyrido[2,3-d]pyrimidine-6-carboxylic acid methylamide] | 16 | 20
4 | CNC(=O)c1cn(C2CCCCC2)c2nc(NCCc3ccc(OC)cc3)ncc2c1=O [Cpd 58, 8-Cyclohexyl-2-[2-(4-methoxy-phenyl)-ethylamino]-5-oxo-5,8-dihydro-pyrido[2,3-d]pyrimidine-6-carboxylic acid methylamide] | 13 | 26
5 | CNC(=O)c1cn(C2CCCCC2)c2nc(NCCN3CCCCC3)ncc2c1=O [Cpd 59, 8-Cyclohexyl-5-oxo-2-(2-piperidin-1-yl-ethylamino)-5,8-dihydro-pyrido[2,3-d]pyrimidine-6-carboxylic acid methylamide] | 5 | 11
6 | CNC(=O)c1cn(C2CCCCC2)c2nc(NCCN3CCOCC3)ncc2c1=O [Cpd 60, 8-Cyclohexyl-2-(2-morpholin-4-yl-ethylamino)-5-oxo-5,8-dihydro-pyrido[2,3-d]pyrimidine-6-carboxylic acid methylamide] | 12 | 18
7 | CNC(=O)c1cn(C2CCCCC2)c2nc(NCc3cc(OC)cc(OC)c3)ncc2c1=O [Cpd 61, 8-Cyclohexyl-2-(3,5-dimethoxy-benzylamino)-5-oxo-5,8-dihydro-pyrido[2,3-d]pyrimidine-6-carboxylic acid methylamide] | 3 | 21
